Tests used:
[1] = tested on: barnyardgrass; test: Test Example 1: foliage treatment, upland pot test; type: in vivo, Echinochloa crus-galli L.; settings: active ingredient 1000 g/ha, observed 18th to 23rd day, 0 = non-treated, 100 = complete kill
Method in brief: (§1)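 Crops and weeds were sown in upland soil pots and sprayed post-emergence at set leaf stages (soybean 0.1–0.4, wheat 1.3–2.4, rice 1.2–2.6, barnyardgrass 1.3–2.8). Formulated compound was applied in 500 L/ha water with 0.1% spreader. Growth control (0–100%) was rated visually 18–23 days later.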

[2] = tested on: crabgrass; test: Test Example 1: foliage treatment, upland pot test; type: in vivo, Digitaria sanguinalis L.; settings: active ingredient 1000 g/ha, observed 18th to 23rd day, 0 = non-treated, 100 = complete kill
[3] = tested on: green foxtail; test: Test Example 1: foliage treatment, upland pot test; type: in vivo, Setaria viridis L.; settings: active ingredient 1000 g/ha, observed 18th to 23rd day, 0 = non-treated, 100 = complete kill
[4] = tested on: redroot pigweed; test: Test Example 1: foliage treatment, upland pot test; type: in vivo, Amaranthus retroflexus L.; settings: active ingredient 1000 g/ha, observed 18th to 23rd day, 0 = non-treated, 100 = complete kill
[5] = tested on: prickly sida; test: Test Example 1: foliage treatment, upland pot test; type: in vivo, Sida spinosa L.; settings: active ingredient 1000 g/ha, observed 18th to 23rd day, 0 = non-treated, 100 = complete kill
[6] = tested on: velvetleaf; test: Test Example 1: foliage treatment, upland pot test; type: in vivo, Abutilon theophrasti MEDIC.; settings: active ingredient 1000 g/ha, observed 18th to 23rd day, 0 = non-treated, 100 = complete kill
[7] = tested on: tall morningglory; test: Test Example 1: foliage treatment, upland pot test; type: in vivo, Ipomoea purpurea L.; settings: active ingredient 1000 g/ha, observed 18th to 23rd day, 0 = non-treated, 100 = complete kill
Excerpt: Upland field soil was put into a 1/170,000 ha pot, and seed of various plants were sown. Then, when the plants reached predetermined leaf stages ((1) barnyardgrass: 1.3 to 2.8 leaf stages, (2) crabgrass: 1.0 to 2.8 leaf stages, (3) green foxtail: 1.3 to 2.6 leaf stages, (4) redroot pigweed: 0.1 to 1.2 leaf stages, (5) prickly sida: 0.1 to 1.2 leaf stages, (6) velvetleaf: 0.1 to 1.2 leaf stages, (7) tall morningglory: 0.1 to 1.5 leaf stages, (8) rice: 1.2 to 2.6 leaf stages, (9) wheat: 1.3 to 2.4 leaf stages, (10) corn, 2.1 to 3.2 leaf stages, (11) soybean: 0.1 to 0.4 leaf stage), a wettable powder or emulsifiable concentrate having the compound of the present invention formulated in accordance with a usual formulation method, was weighed so that the active ingredient would be a predetermined amount, and diluted with water in an amount of 500 L/ha. To the diluted solution, 0.1% (v/v) of agricultural spreader was added. The herbicide thus adjusted was applied by a small size sprayer for foliage treatment. On the 18th to 23rd days after the application of the herbicide, the growth of the respective plants was visually observed, and the herbicidal effects were evaluated by the growth controlling degrees (%) ranging from 0 (equivalent to the non-treated plot) to 100 (complete kill), whereby the results shown in Table 3, were obtained.

[8] = tested on: rice; test: Test Example 1: foliage treatment, upland pot test; type: in vivo, Oryza sativa L.; settings: crop, active ingredient 1000 g/ha, observed 18th to 23rd day, 0 = non-treated, 100 = complete kill
Method in brief: as §1

[9] = tested on: wheat; test: Test Example 1: foliage treatment, upland pot test; type: in vivo, Triticum spp.; settings: crop, active ingredient 1000 g/ha, observed 18th to 23rd day, 0 = non-treated, 100 = complete kill
Method in brief: as §1

[10] = tested on: corn; test: Test Example 1: foliage treatment, upland pot test; type: in vivo, Zea mays L.; settings: crop, active ingredient 1000 g/ha, observed 18th to 23rd day, 0 = non-treated, 100 = complete kill
Method in brief: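 Corn seeds were sown in upland field soil held in a 1/170,000 ha pot and grown to the 2.1 to 3.2 leaf stage. A wettable powder or emulsifiable concentrate of the test compound was diluted with water at 500 L/ha, given 0.1% (v/v) agricultural spreader, and sprayed onto the foliage with a small sprayer. Growth controlling degree (%) was scored visually 18th to 23rd days later, from 0 (non-treated) to 100 (complete kill).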

[11] = tested on: soybean; test: Test Example 1: foliage treatment, upland pot test; type: in vivo, Glycine max Merr.; settings: crop, active ingredient 1000 g/ha, observed 18th to 23rd day, 0 = non-treated, 100 = complete kill
Method in brief: as §1

[12] = tested on: barnyardgrass; test: Test Example 2: soil surface treatment, upland pot test; type: in vivo, Echinochloa crus-galli L.; settings: active ingredient 1000 g/ha, observed 20th to 28th day, 0 = non-treated, 100 = complete kill
Method in brief: (§2)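 Soil surface treated 1 day post-sowing. Formulation: WP or EC, predetermined a.i., diluted to 1,500 L/ha. Pot size 1/170,000 ha, upland soil. Readout: visual % control, 0 = non-treated, 100 = dead, days 20–28.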

[13] = tested on: crabgrass; test: as above; type: in vivo, Digitaria sanguinalis L.; settings: active ingredient 1000 g/ha, observed 20th to 28th day
Method in brief: as §2

[14] = tested on: green foxtail; test: as above; type: in vivo, Setaria viridis L.; settings: active ingredient 1000 g/ha, observed 20th to 28th day
Method in brief: as §2

[15] = tested on: redroot pigweed; test: as above; type: in vivo, Amaranthus retroflexus L.; settings: active ingredient 1000 g/ha, observed 20th to 28th day
Method in brief: as §2

[16] = tested on: prickly sida; test: as above; type: in vivo, Sida spinosa L.; settings: active ingredient 1000 g/ha, observed 20th to 28th day
Method in brief: as §2

[17] = tested on: velvetleaf; test: as above; type: in vivo, Abutilon theophrasti MEDIC.; settings: active ingredient 1000 g/ha, observed 20th to 28th day
Method in brief: as §2

[18] = tested on: rice; test: as above; type: in vivo, Oryza sativa L.; settings: active ingredient 1000 g/ha, observed 20th to 28th day
Method in brief: as §2

[19] = tested on: wheat; test: as above; type: in vivo, Triticum spp.; settings: active ingredient 1000 g/ha, observed 20th to 28th day
Method in brief: as §2

[20] = tested on: corn; test: as above; type: in vivo, Zea mays L.; settings: active ingredient 1000 g/ha, observed 20th to 28th day
Method in brief: as §2

[21] = tested on: soybean; test: as above; type: in vivo, Glycine max Merr.; settings: active ingredient 1000 g/ha, observed 20th to 28th day
Method in brief: as §2

[22] = tested on: barnyardgrass; test: Test Example 3: paddy pot test, application under submerged conditions; type: in vivo, Echinochloa crus-galli L.; settings: active ingredient 500 g/ha; submerged application at 0.5 leaf stage; visually observed 14 days after application; 0 = non-treated, 100 = complete kill
Method in brief: (§3)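 Barnyardgrass and japanese bulrush sown in flooded paddy soil in greenhouse pots, japanese ribbon wapato tubers planted 1–2 days later; water depth kept at 3–4 cm. Diluted wettable powder or emulsifiable concentrate applied into water at 0.5-leaf or primary-leaf stage at set active-ingredient doses. Growth control scored visually at 14 days, 0 (untreated) to 100% (complete kill).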

[23] = tested on: japanese bulrush; test: as above; type: in vivo, Scirpus juncoides; settings: active ingredient 500 g/ha; submerged application at 0.5 leaf stage; visually observed 14 days after application; 0 = non-treated, 100 = complete kill
Method in brief: as §3

[24] = tested on: japanese ribbon wapato; test: as above; type: in vivo, Sagittaria pygniaea; settings: active ingredient 500 g/ha; submerged application at primary leaf stage; visually observed 14 days after application; 0 = non-treated, 100 = complete kill
Method in brief: as §3

[25] = tested on: rice (var. Nihonbare); test: Test Example 3: paddy pot test, transplanted rice; type: in vivo, Oryza sativa L.; settings: active ingredient 500 g/ha, applied 4th day after transplantation, visually observed 21st day after application, 0 = non-treated, 100 = complete kill
Method in brief: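 Rice (var. Nihonbare) at 2 leaf stage transplanted 3 cm deep into puddled paddy soil under 3–4 cm flooding; on day 4 after transplanting, diluted wettable powder or emulsifiable concentrate applied by pipette under submerged conditions at a set active-ingredient dose. Growth scored visually 21 days after application, 0 (untreated) to 100 (complete kill) %.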

SMILES	Growth controlling degree (%) Barnyardgrass [1]	Growth controlling degree (%) Crabgrass [2]	Growth controlling degree (%) Green foxtail [3]	Growth controlling degree (%) Redroot pigweed [4]	Growth controlling degree (%) Prickly sida [5]	Growth controlling degree (%) Velvetleaf [6]	Growth controlling degree (%) Tall morningglory [7]	Growth controlling degree (%) Rice [8]	Growth controlling degree (%) wheat [9]	Growth controlling degree (%) Corn [10]	Growth controlling degree (%) Soybean [11]	Growth controlling degree (%) Barnyardgrass [12]	Growth controlling degree (%) Crabgrass [13]	Growth controlling degree (%) Green foxtail [14]	Growth controlling degree (%) Redroot pigweed [15]	Growth controlling degree (%) Prickly sida [16]	Growth controlling degree (%) Velvetleaf [17]	Growth controlling degree (%) Rice [18]	Growth controlling degree (%) wheat [19]	Growth controlling degree (%) Corn [20]	further results
CCC(=O)N(C)C(c1cnccc1C(F)(F)F)c1cccc2ccccc12 (stereo not drawn) [I-43]	70%	90%	70%	70%	80%	95%	90%	10%	10%	10%	10%	90%	100%	98%	60%	70%	0%	10%	40%	30%	Growth controlling degree (%) Soyabean [21]: 10%; Growth controlling degree (%) Barnyardgrass [22]: 100%; Growth controlling degree (%) Japanese bulrush [23]: 100%; Growth controlling degree (%) Japanese ribbon wapato [24]: 90%; Growth controlling degree (%) Rice [25]: 35%
CCC(=O)N(CC)C(c1cnccc1C(F)(F)F)c1cccc2ccccc12 (stereo not drawn) [I-44]	60%	80%	70%	70%	80%	95%	90%	10%	20%	10%	50%	80%	90%	100%	0%	0%	0%	40%	40%	10%	Growth controlling degree (%) Soyabean [21]: 0%; Growth controlling degree (%) Barnyardgrass [22]: 90%; Growth controlling degree (%) Japanese bulrush [23]: 95%; Growth controlling degree (%) Japanese ribbon wapato [24]: 100%; Growth controlling degree (%) Rice [25]: 30%
COC(=O)N(C)C(c1cnccc1C(F)(F)F)c1cccc2ccccc12 (stereo not drawn) [I-46]	80%	95%	50%	90%	80%	95%	95%	30%	30%	40%	95%	100%	90%	95%	10%	60%	50%	10%	30%	10%	Growth controlling degree (%) Soyabean [21]: 0%; Growth controlling degree (%) Barnyardgrass [22]: 100%; Growth controlling degree (%) Japanese bulrush [23]: 100%; Growth controlling degree (%) Japanese ribbon wapato [24]: 90%; Growth controlling degree (%) Rice [25]: 10%
